Measured values taken from ChEMBL document CHEMBL1133372, “Mechanistic studies on type I and type II dehydroquinase with (6R)- and (6S)-6-fluoro-3-dehydroquinic acids” (Bioorg Med Chem Lett, 2000).

Tests used:
Aspergillus nidulans [1] = experiment: Kcat value was evaluated against type 2 Dehydroquinase of Aspergillus nidulans
[2] = test system: Mycobacterium tuberculosis; experiment: The compound was evaluated for its kinetic parameter (Km) against type 2 Dehydroquinase of Mycobacterium tuberculosis
[3] = test system: Mycobacterium tuberculosis; experiment: Kcat value was evaluated against type 2 Dehydroquinase of Mycobacterium tuberculosis
Aspergillus nidulans [4] = experiment: The compound was evaluated for its kinetic parameter (Km) against type 2 Dehydroquinase of Aspergillus nidulans
[5] = biological target: T1, 3-dehydroquinate dehydratase (Escherichia coli K-12) (UniProt P05194); experiment: Kcat / Km value was evaluated against type 1 Dehydroquinase of Escherichia coli
T1 sequence (whole entry): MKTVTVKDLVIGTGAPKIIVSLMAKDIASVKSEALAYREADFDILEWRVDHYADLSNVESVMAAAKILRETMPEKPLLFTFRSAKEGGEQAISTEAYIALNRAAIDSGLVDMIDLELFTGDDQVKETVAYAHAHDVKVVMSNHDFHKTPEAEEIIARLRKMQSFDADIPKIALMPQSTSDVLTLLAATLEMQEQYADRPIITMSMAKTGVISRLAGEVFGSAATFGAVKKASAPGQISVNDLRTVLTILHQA

[6] = biological target: T1, 3-dehydroquinate dehydratase (Escherichia coli K-12); experiment: Kcat value was evaluated against type 1 Dehydroquinase of Escherichia coli

O=C1CC(O)(C(=O)O)CC(O)C1O (stereo unspecified)
k cat (Aspergillus nidulans [1]): 313 s⁻¹
Km [2]: 13 µM
k cat [3]: 2.6 s⁻¹
Km (Aspergillus nidulans [4]): 122 µM

O=C1CC(O)(C(=O)O)C(F)C(O)C1O (stereo in doubt; 2)
k cat (Aspergillus nidulans [1]): 4.6 s⁻¹
Km [2]: 3.6 µM
k cat/Km [5]: 310000 M⁻¹ s⁻¹
k cat [3]: 0.14 s⁻¹
k cat [6]: 3 s⁻¹
Km (Aspergillus nidulans [4]): 39 µM

O=C1CC(O)(C(=O)O)C(F)C(O)C1O (stereo in doubt; 3)
k cat (Aspergillus nidulans [1]): 46 s⁻¹
Km [2]: 7.9 µM
k cat/Km [5]: 310000 M⁻¹ s⁻¹
k cat [3]: 1.1 s⁻¹
k cat [6]: 36 s⁻¹
Km (Aspergillus nidulans [4]): 50 µM
